Results reported in patent publication US12239125B2, “Compositions for organ preservation” (SigmaDrugs Kutató Korlátolt Felelösségü Társaság, priority 2016, dated 2025).
pIC50: −log10 of the molar value. Structures can show the parent of a compound that is named as a salt.

Legend:
[1] = tested on: mitochondrial functions (liver); details: administered to rats or used in the preservation liquid of isolated liver; cited from earlier work
[2] = tested on: isolated kidney; experiment: Rat model of kidney cold ischemia (cold perfusion and storage of isolated kidney); details: for mRNA levels of BAX / mRNA levels of Bcl-2: stored kidneys; for mRNA levels of BAX: difference not statistically significant; for reducing, delaying or preventing functional and/or structural damage of a stored organ or tissue (comparison of the three agonists): fluvoxamine, SA-4503 and PRE-84 compared
Method: Male Wistar rats were anesthetized with isoflurane (3% vol/vol) mixed with synthetic air (1 L/min) before surgery and placed on a temperature-controlled table to maintain core body temperature. Kidneys (n=6/group) were washed through the renal arteries with 5 ml cold solution, then removed from the animal and placed into a container filled with the same solution for either 2 or 3 hours. […] 3h CP); (viii) Custodiol containing 0.003 mg/mL FLU, 3 hours of cold perfusion (Cust. […] After cold ischemia kidneys were immediately snap-frozen in liquid nitrogen and stored at −80° C. or fixed in buffered 8% formalin for further processing.
Kidneys were fixed in 8% formalin, embedded into paraffin and 5 μm sections were stained with periodic acid-Schiff (PAS) to assess tubular injury. Images were taken with Panoramic Viewer (3[…] Ltd., Budapest, Hungary). Tubular luminal areas were measured in three fields of magnification ×200 per rat. The analysis was performed in a double-blinded fashion with computer-assisted morphometry using Adobe Photoshop CS6 (Adobe Systems Corporation, San José, Calif., USA) and Image J (National Institute of Health, Bethesda, MD, USA) softwares on a Zeiss Axiolmager A1 light-microscope (Carl Zeiss A G, Jena, Germany).
Total RNA was isolated from kidneys with GeneAid Total RNA Mini Kit (Geneaid Biotech Ltd., New Taipei City, Taiwan). 500 ng RNA was reverse-transcribed using Maxima First Strand cDNA Synthesis Kit for RT-qPCR (Thermo Scientific, Waltham, MA, USA) to generate first-strand cDNA. mRNA expressions of Ngal (Lcn2), Kim1, Mcp1, IL-1α (Il1α), IL-6 (Il6), IL-10 (Il10), TNF-α (Tnf), HO-1 (Hmox1), Bax, Bcl-2 (Bcl2), 18S ribosomal RNA (Rn18s) and β-actin (Actb) were determined with real-time RT-PCR using Light Cycler 480 SYBR Green 1 Master enzyme mix on a Light Cycler system (Roche Diagnostics, Mannheim, Germany). The reaction mix contained 10 pmol/μl of each PCR primer (Table 1; Integrated DNA Technologies Inc., Coralville, IA, USA), 10 μl of Light Cycler 480 SYBR Green 1 Master enzyme mix and 1 μl of cDNA sample. The conditions of the PCRs were as follows: 1 cycle at 95° C. for 5 minutes, followed by 70 cycles under the appropriate PCR conditions. Quantification was performed with the second-derivative method by monitoring the cycle number at which the fluorescent sign could be distinguished from the background. Results were analyzed with Light Cycler 480 software version 1.5.0.39 (Roche Diagnostics, Mannheim, Germany). The mRNA expression of each gene was determined by comparison to 18S ribosomal RNA as housekeeping gene from the same sample.
All reagents for Western blotting were purchased from Bio-Rad Laboratories, Hercules, CA, USA unless stated otherwise. Tissue samples were lysed in buffer containing leupeptin, aprotinin, Triton X-100, Tris-HCl, Ethylene glycol-bis (2-aminoethylether),N,N,N′,N′-tetraacetic-acid, NaF, Phenylmethylsulphonylfluoride and Na-orthovanadate (each substance were purchased from Sigma-Aldrich Co., St. Louis, MO, USA). Protein concentrations were determined using Bradford assay. […] Pre-stained protein mixture was used as marker of molecular mass. The separated proteins were transferred into nitrocellulose membranes. Non-specific binding sites were blocked in 5% non-fat dry milk containing blot solution. Membranes were incubated with monoclonal antibody specific to rat cleaved caspase-3 (Asp175) (Cell Signaling Technology, Danvers, MA, USA) diluted to 1:1000. Blots were washed and incubated (1 hour, room temperature) with peroxidase-conjugated goat anti-rabbit IgG secondary antibody (Cell Signaling Technology, Danvers, MA, USA) diluted to 1:4000. […] Bands were analyzed with Quantity One software version 4.6.9. Protein abundance was represented as Integrated Optical Density (IOD)/Ponceau S compared to controls.
Data were analyzed using GraphPad Prism software (GraphPad Software Inc., La Jolla, CA, USA).

[3] = target: PCP receptors; details: cited from earlier work
[4] = tested on: autotransplanted kidney; experiment: Rat model of kidney isograft autotransplantation (ATx) after cold storage in preservation solution; format: in vivo; details: for Kidney function / serum AST levels / serum creatinine levels: vs preservation solution without S1R agonist; for NGAL levels: compared to Custodiol; for Tubular lumen areas (tubular dilatation): vs standard preservation solution, PAS-stained sections
Method: The institutional committee on animal welfare approved all experiments. Experiments were performed on Male Wistar rats weighing 205±15 g (Toxi-Coop Toxicological Research Center, Dunakeszi, Hungary). Animals were housed in a temperature-controlled (22±1° C.) room with alternating light and dark cycles and had free access to standard rat chow and water. Male Wistar rats (n=8/group) were anesthetized with isoflurane (3% vol/vol) mixed with synthetic air (1 L/min) before surgery and placed on a temperature-controlled table to maintain core body temperature. Left kidneys were perfused with cold Custodiol perfusion solution (Na^+: 15 mmol/L; K^+: 9 mmol/L; Mg^2+: 4 mmol/L; Ca^2+: 0.015 mmol/L; histidine: 198 mmol/L; tryptophan: 2 mmol/L; ketoglutarate: 1 mmol/L; mannitol: 30 mmol/L) (Franz Kohler Chemie GMBH, Bensheim, Germany), then removed from the animal: kidneys were placed into a container for 2 hours filled with either (i) cold Custodiol perfusion solution (ATx) or (ii) cold Custodiol perfusion solution containing 0.003 mg/mL FLU (ATx FLU) or (iii) cold Custodiol perfusion solution containing 0.003 mg/mL SA4503 (ATx SA). After 2 hours kidneys were placed back into the rats and end-to-end anastomoses of the renal artery, vein and ureter were performed. […] Total warm ischemia time was 35 min in all animals. Sham operated animals served as controls. After 24 hours of reperfusion, blood samples were collected from the abdominal aorta, the remnant kidneys were harvested, instantly snap-frozen in liquid nitrogen, and stored at -80° C. or fixed in buffered 8% formalin for further processing. The experimental design of the autotransplantation is shown in FIG. 9 Metabolic (glucose, fructosamine, total and HDL-cholesterol, triglycerides) and renal functional parameters from rat sera (sodium, potassium, creatinine, blood urea nitrogen (BUN), aspartate transaminase (AST)) were determined with commercially available kits on a Hitachi 912 photometric chemistry analyzer. Kidneys were fixed in 8% formalin, embedded into paraffin and 5 μm sections were stained with periodic acid-Schiff (PAS) to assess tubular injury. Images were taken with Panoramic Viewer (3[…] Ltd., Budapest, Hungary). Tubular luminal areas were measured in three fields of magnification ×200 per rat. The analysis was performed in a double-blinded fashion with computer-assisted morphometry using Adobe Photoshop CS6 (Adobe Systems Corporation, San José, Calif., USA) and Image J (National Institute of Health, Bethesda, MD, USA) softwares on a Zeiss Axiolmager A1 light-microscope (Carl Zeiss A G, Jena, Germany). Formalin-fixed kidney samples were embedded into paraffin. 5 μm thick sections were mounted on Superfrost slides (Thermo Shandon, Runcorn, UK) and were manually deparaffinized. Assay was performed using the Apoptag® Peroxidase In situ Apoptosis Detection Kit (Millipore, Billerica, MA, USA). Briefly, samples were pretreated with Proteinase K for 15 min. Following repeated washing steps endogenous peroxidase activity was blocked by 3% H2O2 in methanol for 5 min at room temperature. Next, slides were incubated in reaction buffer containing 30% TdT enzyme for 1 hour at room temperature after which Stop buffer was added. Slides were incubated with anti-Dioxigenin Conjugate for 30 min at room temperature. Slides were developed using DAB peroxidase substrate. The areas of TUNEL-positive apoptotic nuclei were measured in three fields of magnification ×200 per rat. The analysis was performed using Adobe Photoshop CS6 (Adobe Systems Corporation, San José, Calif., USA) and Image J (National Institute of Health, Bethesda, MD, USA) softwares on a Zeiss Axiolmager A1 light-microscope (Carl Zeiss A G, Jena, Germany). Formalin-fixed kidney samples were embedded into paraffin. One to two micron thick sections were mounted on Superfrost slides (Thermo Shandon, Runcorn, UK) and were manually deparaffinized. Endogenous peroxidase activity was blocked by 3% H2O2 in methanol for 20 min at room temperature. […]

[5] = isolated kidneys stored in Custodiol, vs vehicle
[6] = 2 h cold storage in Custodiol with 0.003 mg/mL compound, ATx, 24 hours of reperfusion
[7] = transplantation after storage, vs vehicle
[8] = stored and subsequently transplanted kidney

## COc1ccc(CN2CCN(Cc3ccccc3)CC2)c(O)c1OC [BHDP, N-benzyl-N′-(2-hydroxy-3,4-dimethoxybenzyl)-piperazine]
[1]
  mitochondrial functions: protected mitochondrial functions

## CCCN(CCC)CCc1ccc(OC)c(OCCc2ccccc2)c1 [NE100, N-dipropyl-2-[4-methoxy-3-(2-phenylethoxy)-phenyl]-ethylamine monohydrochloride]
[2]
  KIM-1 levels: effect of adding S1R antagonist to fluvoxamine: diminished the protective effect of fluvoxamine

## O=C(OCCN1CCOCC1)C1(c2ccccc2)CCCCC1 [PRE-084, 2-morpholin-4-dylethyl 1-phenylcyclohexane-1-carboxylate]
[2]; [5]
  KIM-1 levels: inhibited the increase of KIM-1
[2]
  mRNA levels of BAX: decreased
[3]
  pIC50: < 4.00

## COc1ccc(CCN2CCN(CCCc3ccccc3)CC2)cc1OC [SA 4503, 1-[2-(3,4-Dimethoxyphenyl)ethyl]-4-(3-phenylpropyl)piperazine]
[4]; [6]
  BUN (Blood urea nitrogen) levels: significantly decreased
  Kidney function: substantially improved
  serum AST levels: lower
  serum creatinine levels: lower
[4]; transplantation after storage
  NGAL levels: significantly decreased
  Tubular lumen areas (tubular dilatation): significantly smaller
[4]; [7]
  KIM-1 expression levels: significantly lower expression
[2]; [5]
  KIM-1 levels: inhibited the increase of KIM-1
[2]
  mRNA levels of Bcl-2: no such effect
  mRNA levels of BAX: decreased

## COCCCC/C(=N\OCCN)c1ccc(C(F)(F)F)cc1 [fluvoxamine, fluvoxamine maleate]
[4]; [6]
  Kidney function: substantially improved
  serum AST levels: lower
  serum creatinine levels: lower
[4]; autotransplanted kidneys, vs vehicle
  Levels of MCP-1: significantly less elevated
[4]; [8]
  mRNA levels of inflammatory cytokines (IL10, IL-1α, TNFα): decreased
  protein levels of inflammatory cytokines (IL10, IL-1α, TNFα): decreased
[4]; transplantation after storage
  NGAL levels: significantly decreased
  Tubular lumen areas (tubular dilatation): significantly smaller
[4]; transplantation after storage, vs conventional preservation fluid (vehicle)
  histological damage on PAS-stained kidney sections: milder histological damage
[4]; transplantation after storage, listed as FLU
  Tubular lumen areas (tubular dilatation): less dilated
[4]; [7]
  BAX expression (mRNA): significant decrease
  KIM-1 expression levels: significantly lower expression
  increase of HO-1 expression: prevented
  mRNA levels of Bcl-2: significant increase
[4]; transplantation after storage, vs vehicle treated kidneys
  apoptotic cells in TUNEL assay: significantly less apoptotic cells
[2]; 3, 8 or 24 hours of cold ischemia with Flu vs 2 hours ischemia without Flu
  structural damage after prolonged cold ischemia: less pronounced
[2]; Custodiol, 2 and 3 hours of cold storage
  increase of tubular damage (tubular lumen areas) from 2 to 3 hours of cold storage: inhibited this increase of damage
[2]; after 1.5 fold longer or even 10 fold longer preservation time than organs in same solution without fluvoxamine
  less tissue damage by histologic assay: 25%
[2]; after storage, vs conventional Custodiol
  MCP-1 levels: less elevated
[2]; cold storage without reperfusion, compound 0.003 mg/mL in preservation solution vs solution alone
  Tubular lumen dilatation: less dilated
[2]
  reducing, delaying or preventing functional and/or structural damage of a stored organ or tissue (comparison of the three agonists): surprisingly more effective than SA 4503
  mRNA levels of Bcl-2: markedly increased
  mRNA levels of BAX: decreased
[2]; listed as Fluvoxamine
  reducing, delaying or preventing functional and/or structural damage of a stored organ or tissue (comparison of the three agonists): most successful of the three compounds
[2]; [5]
  KIM-1 levels: decreased dramatically
[2]; perfused with FLU, harvested after 2 hours of cold ischemia
  kidney structure on PAS-stained sections: better preserved
[2]; saline
  KIM-1 levels: milder, though a tendency of decrease is noticed
  NGAL mRNA expression: Efficacy of fluvoxamine in saline was also demonstrated
